In US20230339891A1, “URACIL DERIVATIVES AS MER-AXL INHIBITORS” (BRISTOL-MYERS SQUIBB COMPANY, priority 2018, published 2023):

Assays:
[1] = molecular target: GST-MERTK 578-872 (Homo sapiens (Human), UniProt Q12866); assay: MERTK kinase homogeneous time resolved fluorescence (HTRF) binding assay; settings: 1 nM kinase, fluorescein-labeled kinase tracer at Kd, 60 minutes at room temperature; read-out: Mer HTRF IC50
How it was run: (§1)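 HTRF binding read-out after 60 min at room temperature, expressed as the 520/495 nm (fluorescein/terbium) ratio. Inhibition normalized to no-protein (100%) and vehicle (0%) controls. IC50 from 11-point dose-response; compounds from 10 mM DMSO stocks.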

[2] = molecular target: HIS-AXL 473-End (Homo sapiens (Human), UniProt P30530); assay: AXL kinase homogeneous time resolved fluorescence (HTRF) binding assay; settings: 1 nM kinase, fluorescein-labeled kinase tracer at Kd, 60 minutes at room temperature
How it was run: as §1

GST-MERTK 578-872, sequence (Q12866 578-872): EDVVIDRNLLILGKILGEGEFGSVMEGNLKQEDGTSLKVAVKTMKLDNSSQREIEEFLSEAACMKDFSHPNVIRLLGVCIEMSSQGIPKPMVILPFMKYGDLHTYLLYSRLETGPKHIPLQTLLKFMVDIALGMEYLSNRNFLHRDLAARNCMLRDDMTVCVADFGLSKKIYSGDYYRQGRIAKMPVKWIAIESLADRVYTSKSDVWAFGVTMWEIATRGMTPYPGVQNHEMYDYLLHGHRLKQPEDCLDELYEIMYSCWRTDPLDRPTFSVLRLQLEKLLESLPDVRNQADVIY
HIS-AXL 473-End, sequence (P30530 473-894): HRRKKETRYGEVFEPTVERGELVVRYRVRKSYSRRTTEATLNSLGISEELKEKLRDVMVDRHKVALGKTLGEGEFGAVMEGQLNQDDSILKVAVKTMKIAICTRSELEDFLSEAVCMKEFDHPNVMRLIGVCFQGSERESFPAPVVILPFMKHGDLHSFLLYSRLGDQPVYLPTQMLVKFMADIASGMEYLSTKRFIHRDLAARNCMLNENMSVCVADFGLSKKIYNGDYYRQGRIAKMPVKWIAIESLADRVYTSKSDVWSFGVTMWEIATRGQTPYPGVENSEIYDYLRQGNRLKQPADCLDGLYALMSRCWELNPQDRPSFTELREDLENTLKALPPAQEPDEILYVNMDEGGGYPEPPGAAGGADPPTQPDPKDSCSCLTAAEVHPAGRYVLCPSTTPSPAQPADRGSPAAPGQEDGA

Structure (SMILES) | IC50 [1] [nM] | IC50 [2] [nM]
CC(C)n1cc(C(=O)Nc2ccc(Oc3ccnc(Nc4nc(N5CCN(S(C)(=O)=O)CC5)ccc4F)c3)c(F)c2)c(=O)n(-c2ccc(F)cc2)c1=O [Example 135, N-{3-fluoro-4-[(2-{[3-fluoro-6-(4-methanesulfonylpiperazin-1-yl)pyridin-2-yl]amino}pyridin-4-yl)oxy]phenyl}-3-(4-fluorophenyl)-2,4-dioxo-1-(propan-2-yl)-1,2,3,4-tetrahydropyrimidine-5-carboxamide] | 1 | 1.1
Cc1cc(Nc2cc(Oc3ccc(NC(=O)c4cn(C(C)C)c(=O)n(-c5ccc(F)cc5)c4=O)cc3F)ccn2)nc(N2CCN(S(C)(=O)=O)CC2)c1 [Example 136, N-{3-fluoro-4-[(2-{[6-(4-methanesulfonylpiperazin-1-yl)-4-methylpyridin-2-yl]amino}pyridin-4-yl)oxy]phenyl}-3-(4-fluorophenyl)-2,4-dioxo-1-(propan-2-yl)-1,2,3,4-tetrahydropyrimidine-5-carboxamide] | 3.9 | 1040
Cc1cnc(Nc2cc(Oc3ccc(NC(=O)c4cn(C(C)C)c(=O)n(-c5ccc(F)cc5)c4=O)cc3F)ccn2)nc1N1CCN(S(C)(=O)=O)CC1 [Example 137, N-(3-fluoro-4-[(2-{[4-(4-methanesulfonylpiperazin-1-yl)-5-methylpyrimidin-2-yl]amino}pyridin-4-yl)oxy]phenyl)-3-(4-fluorophenyl)-2,4-dioxo-1-(propan-2-yl)-1,2,3,4-tetrahydropyrimidine-5-carboxamide] | 3.6 | 3.4

More lines, now with the values ahead:

IC50 [1] [nM] | IC50 [2] [nM] | Structure (SMILES)
20 | 23 | CC(C)n1cc(C(=O)Nc2ccc(Oc3ccnc(Nc4ccc(C(F)(F)F)c(N5CCN(S(C)(=O)=O)CC5)n4)c3)c(F)c2)c(=O)n(-c2ccc(F)cc2)c1=O [Example 138, N-{3-fluoro-4-[(2-{[6-(4-methanesulfonylpiperazin-1-yl)-5-(trifluoromethyl)pyridin-2-yl]amino}pyridin-4-yl)oxy]phenyl}-3-(4-fluorophenyl)-2,4-dioxo-1-(propan-2-yl)-1,2,3,4-tetrahydropyrimidine-5-carboxamide]
11 | 77 | COC(=O)N1CCN(c2nc(Nc3cc(Oc4ccc(NC(=O)c5cn(C(C)C)c(=O)n(-c6ccc(F)cc6)c5=O)cc4F)ccn3)ccc2C(F)(F)F)CC1 [Example 139]
17 | 14700 | CC(C)n1cc(C(=O)Nc2ccc(Oc3ccnc(Nc4ccc(C(F)(F)F)c(N5CCN(S(=O)(=O)N(C)C)CC5)n4)c3)c(F)c2)c(=O)n(-c2ccc(F)cc2)c1=O [Example 141]
